Assay results as given in US12617779B2, “Self degradation-type CDK9 inhibitor prodrug and liposome encapsulating same” (Sumitomo Pharma Co., Ltd., priority 2021, dated 2026).

Test: Evaluation of conversion rate to active form in buffer solution (Experimental Example 1)
Type: physicochemical
Conditions: for Stability in buffer solution at pH 5 / Conversion to Alvocidib at pH 5 within 3 hours: pH 5, 37° C.; for Stability in buffer solution at pH 5: up to 2 or 3 hours
Method: For Examples 1 to 16 and Comparative Examples 1 to 14, the attrition rate of the test compound and the conversion rate of the test compound to Alvocidib in a buffer solution were calculated by the following method.
Examples 1 to 16 and Comparative Examples 1 to 14 were each left in buffer solutions adjusted to pH 5.0, 5.5, 6.0, 6.5, 7.0 and 7.4, respectively, at a concentration of 25 umol/L at 37° C. After 0, 0.5, 1, 2 and 3 hours, the residual rates of the compounds of Examples […] and the production rate of Alvocidib were determined by HPLC.
The buffer solutions used at each pH are as follows. • pH 5.0: 50 mM citrate buffer solution (pH 5.0) • pH 5.5: 50 mM citrate buffer solution (pH 5.5) • pH 6.0: 50 mM phosphate buffer solution (pH 6.0) • pH 6.5: 50 mM phosphate buffer solution (pH 6.5) • pH 7.0: 50 mM phosphate buffer solution (pH 7.0) • pH 7.4: 50 mM phosphate buffer solution (pH 7.4)
The measurement conditions for HPLC are as follows.

[1] = pH5.0, 0 hr, 37° C., 25 umol/L in buffer solution
[2] = pH5.0, 0.5 hr, 37° C., 25 umol/L in buffer solution
[3] = pH5.0, 1 hr, 37° C., 25 umol/L in buffer solution
[4] = pH5.0, 2 hr, 37° C., 25 umol/L in buffer solution
[5] = pH5.0, 3 hr, 37° C., 25 umol/L in buffer solution
[6] = pH5.5, 0 hr, 37° C., 25 umol/L in buffer solution
[7] = pH5.5, 0.5 hr, 37° C., 25 umol/L in buffer solution
[8] = pH5.5, 1 hr, 37° C., 25 umol/L in buffer solution
[9] = pH5.5, 2 hr, 37° C., 25 umol/L in buffer solution
[10] = pH5.5, 3 hr, 37° C., 25 umol/L in buffer solution
[11] = pH6.0, 0 hr, 37° C., 25 umol/L in buffer solution
[12] = pH6.0, 0.5 hr, 37° C., 25 umol/L in buffer solution
[13] = pH6.0, 1 hr, 37° C., 25 umol/L in buffer solution
[14] = pH6.0, 2 hr, 37° C., 25 umol/L in buffer solution
[15] = pH6.0, 3 hr, 37° C., 25 umol/L in buffer solution
[16] = pH6.5, 0 hr, 37° C., 25 umol/L in buffer solution
[17] = pH6.5, 0.5 hr, 37° C., 25 umol/L in buffer solution
[18] = pH6.5, 1 hr, 37° C., 25 umol/L in buffer solution
[19] = pH6.5, 2 hr, 37° C., 25 umol/L in buffer solution
[20] = pH6.5, 3 hr, 37° C., 25 umol/L in buffer solution
[21] = pH7.0, 0 hr, 37° C., 25 umol/L in buffer solution
[22] = pH7.0, 0.5 hr, 37° C., 25 umol/L in buffer solution
[23] = pH7.0, 1 hr, 37° C., 25 umol/L in buffer solution
[24] = pH7.0, 2 hr, 37° C., 25 umol/L in buffer solution
[25] = pH7.0, 3 hr, 37° C., 25 umol/L in buffer solution
[26] = pH7.4, 0 hr, 37° C., 25 umol/L in buffer solution
[27] = pH7.4, 0.5 hr, 37° C., 25 umol/L in buffer solution
[28] = pH7.4, 1 hr, 37° C., 25 umol/L in buffer solution
[29] = pH7.4, 2 hr, 37° C., 25 umol/L in buffer solution
[30] = pH7.4, 3 hr, 37° C., 25 umol/L in buffer solution

CCNC(=O)Oc1cc(O)c2c(=O)cc(-c3ccccc3Cl)oc2c1[C@H]1CCN(C)C[C@H]1O [Comparative Example 1, reference compound]
Production rate of Alvocidib [1]: 8.4%
Residual rate [1]: 91.6%
Stability in buffer solution at pH 5: unstable
Conversion to Alvocidib at pH 5 within 3 hours: mostly converted to Alvocidib
Production rate of Alvocidib [2]: 37.9%
Residual rate [2]: 62.1%
Production rate of Alvocidib [3]: 58.5%
Residual rate [3]: 41.5%
Production rate of Alvocidib [4]: 82.1%
Residual rate [4]: 17.9%
Production rate of Alvocidib [5]: 91.8%
Residual rate [5]: 8.2%
Production rate of Alvocidib [6]: 8.8%
Residual rate [6]: 91.2%
Production rate of Alvocidib [7]: 74.7%
Residual rate [7]: 25.3%
Production rate of Alvocidib [8]: 92.7%
Residual rate [8]: 7.3%
Production rate of Alvocidib [9]: 98.9%
Residual rate [9]: 1.1%
Production rate of Alvocidib [10]: 99.3%
Residual rate [10]: 0.7%
Production rate of Alvocidib [11]: 10.1%
Residual rate [11]: 89.9%
Production rate of Alvocidib [12]: 96.3%
Residual rate [12]: 3.7%
Production rate of Alvocidib [13]: 98.3%
Residual rate [13]: 1.5%
Production rate of Alvocidib [14]: 98.5%
Residual rate [14]: 1.3%
Production rate of Alvocidib [15]: 99.0%
Residual rate [15]: 1.0%
Production rate of Alvocidib [16]: 12.9%
Residual rate [16]: 87.1%
Production rate of Alvocidib [17]: 98.7%
Residual rate [17]: 1.3%
Production rate of Alvocidib [18]: 99.0%
Residual rate [18]: 1.0%
Production rate of Alvocidib [19]: 98.9%
Residual rate [19]: 1.1%
Production rate of Alvocidib [20]: 99.2%
Residual rate [20]: 0.8%
Production rate of Alvocidib [21]: 22.2%
Residual rate [21]: 77.8%
Production rate of Alvocidib [22]: 99.0%
Residual rate [22]: 1.0%
Production rate of Alvocidib [23]: 99.1%
Residual rate [23]: 0.9%
Production rate of Alvocidib [24]: 98.8%
Residual rate [24]: 1.0%
Production rate of Alvocidib [25]: 99.1%
Residual rate [25]: 0.9%
Production rate of Alvocidib [26]: 40.2%
Residual rate [26]: 59.8%
Production rate of Alvocidib [27]: 99.1%
Residual rate [27]: 0.9%
Production rate of Alvocidib [28]: 98.9%
Residual rate [28]: 1.1%
Production rate of Alvocidib [29]: 99.1%
Residual rate [29]: 1.0%
Production rate of Alvocidib [30]: 99.3%
Residual rate [30]: 0.7%

CNC(=O)Oc1cc(O)c2c(=O)cc(-c3ccccc3Cl)oc2c1[C@H]1CCN(C)C[C@H]1O [Comparative Example 2, reference compound]
Production rate of Alvocidib (pH5.0, 0 hr): 2.0%
Residual rate (pH5.0, 0 hr): 96.6%
Stability in buffer solution at pH 5: unstable
Conversion to Alvocidib at pH 5 within 3 hours: mostly converted to Alvocidib
Production rate of Alvocidib (pH5.0, 0.5 hr): 31.8%
Residual rate (pH5.0, 0.5 hr): 66.9%
Production rate of Alvocidib (pH5.0, 1 hr): 53.2%
Residual rate (pH5.0, 1 hr): 45.1%
Production rate of Alvocidib (pH5.0, 2 hr): 79.0%
Residual rate (pH5.0, 2 hr): 19.3%
Production rate of Alvocidib (pH5.0, 3 hr): 90.0%
Residual rate (pH5.0, 3 hr): 8.5%
Production rate of Alvocidib (pH5.5, 0 hr): 2.4%
Residual rate (pH5.5, 0 hr): 96.4%
Production rate of Alvocidib (pH5.5, 0.5 hr): 70.5%
Residual rate (pH5.5, 0.5 hr): 28.0%
Production rate of Alvocidib (pH5.5, 1 hr): 90.8%
Residual rate (pH5.5, 1 hr): 7.5%
Production rate of Alvocidib (pH5.5, 2 hr): 97.6%
Residual rate (pH5.5, 2 hr): 0.6%
Production rate of Alvocidib (pH5.5, 3 hr): 98.6%
Residual rate (pH5.5, 3 hr): 0.0%
Production rate of Alvocidib (pH6.0, 0 hr): 3.3%
Residual rate (pH6.0, 0 hr): 95.1%
Production rate of Alvocidib (pH6.0, 0.5 hr): 95.7%
Residual rate (pH6.0, 0.5 hr): 2.5%
Production rate of Alvocidib (pH6.0, 1 hr): 98.2%
Residual rate (pH6.0, 1 hr): 0.0%
Production rate of Alvocidib (pH6.0, 2 hr): 98.3%
Residual rate (pH6.0, 2 hr): 0.0%
Production rate of Alvocidib (pH6.0, 3 hr): 98.6%
Residual rate (pH6.0, 3 hr): 0.0%
Production rate of Alvocidib (pH6.5, 0 hr): 7.1%
Residual rate (pH6.5, 0 hr): 91.5%
Production rate of Alvocidib (pH6.5, 0.5 hr): 98.3%
Residual rate (pH6.5, 0.5 hr): 0.0%
Production rate of Alvocidib (pH6.5, 1 hr): 98.3%
Residual rate (pH6.5, 1 hr): 0.0%
Production rate of Alvocidib (pH6.5, 2 hr): 98.5%
Residual rate (pH6.5, 2 hr): 0.0%
Production rate of Alvocidib (pH6.5, 3 hr): 98.2%
Residual rate (pH6.5, 3 hr): 0.0%
Production rate of Alvocidib (pH7.0, 0 hr): 17.0%
Residual rate (pH7.0, 0 hr): 81.8%
Production rate of Alvocidib (pH7.0, 0.5 hr): 98.6%
Residual rate (pH7.0, 0.5 hr): 0.0%
Production rate of Alvocidib (pH7.0, 1 hr): 98.3%
Residual rate (pH7.0, 1 hr): 0.0%
Production rate of Alvocidib (pH7.0, 2 hr): 98.3%
Residual rate (pH7.0, 2 hr): 0.0%
Production rate of Alvocidib (pH7.0, 3 hr): 98.3%
Residual rate (pH7.0, 3 hr): 0.0%
Production rate of Alvocidib (pH7.4, 0 hr): 34.5%
Residual rate (pH7.4, 0 hr): 63.9%
Production rate of Alvocidib (pH7.4, 0.5 hr): 98.4%
Residual rate (pH7.4, 0.5 hr): 0.0%
Production rate of Alvocidib (pH7.4, 1 hr): 98.2%
Residual rate (pH7.4, 1 hr): 0.0%
Production rate of Alvocidib (pH7.4, 2 hr): 98.5%
Residual rate (pH7.4, 2 hr): 0.0%
Production rate of Alvocidib (pH7.4, 3 hr): 98.5%
Residual rate (pH7.4, 3 hr): 0.0%

CNC(=O)O[C@@H]1CN(C)CC[C@@H]1c1c(O)cc(O)c2c(=O)cc(-c3ccccc3Cl)oc12 [Comparative Example 5, reference compound]
Production rate of Alvocidib (pH5.0, 0 hr): 0.0%
Residual rate (pH5.0, 0 hr): 93.9%
Production rate of Alvocidib (pH5.0, 0.5 hr): 0.0%
Residual rate (pH5.0, 0.5 hr): 93.5%
Production rate of Alvocidib (pH5.0, 1 hr): 0.0%
Residual rate (pH5.0, 1 hr): 93.4%
Production rate of Alvocidib (pH5.0, 2 hr): 0.0%
Residual rate (pH5.0, 2 hr): 93.9%
Production rate of Alvocidib (pH5.0, 3 hr): 0.0%
Residual rate (pH5.0, 3 hr): 93.9%
Production rate of Alvocidib (pH5.5, 0 hr): 0.0%
Residual rate (pH5.5, 0 hr): 93.9%
Production rate of Alvocidib (pH5.5, 0.5 hr): 0.0%
Residual rate (pH5.5, 0.5 hr): 93.8%
Production rate of Alvocidib (pH5.5, 1 hr): 0.0%
Residual rate (pH5.5, 1 hr): 93.8%
Production rate of Alvocidib (pH5.5, 2 hr): 0.0%
Residual rate (pH5.5, 2 hr): 94.0%
Production rate of Alvocidib (pH5.5, 3 hr): 0.0%
Residual rate (pH5.5, 3 hr): 93.6%
Production rate of Alvocidib (pH6.0, 0 hr): 0.0%
Residual rate (pH6.0, 0 hr): 93.5%
Production rate of Alvocidib (pH6.0, 0.5 hr): 0.0%
Residual rate (pH6.0, 0.5 hr): 94.0%
Production rate of Alvocidib (pH6.0, 1 hr): 0.0%
Residual rate (pH6.0, 1 hr): 93.5%
Production rate of Alvocidib (pH6.0, 2 hr): 0.0%
Residual rate (pH6.0, 2 hr): 93.9%
Production rate of Alvocidib (pH6.0, 3 hr): 0.0%
Residual rate (pH6.0, 3 hr): 94.0%
Production rate of Alvocidib (pH6.5, 0 hr): 0.0%
Residual rate (pH6.5, 0 hr): 93.5%
Production rate of Alvocidib (pH6.5, 0.5 hr): 0.0%
Residual rate (pH6.5, 0.5 hr): 93.9%
Production rate of Alvocidib (pH6.5, 1 hr): 0.0%
Residual rate (pH6.5, 1 hr): 93.6%
Production rate of Alvocidib (pH6.5, 2 hr): 0.0%
Residual rate (pH6.5, 2 hr): 93.5%
Production rate of Alvocidib (pH6.5, 3 hr): 0.0%
Residual rate (pH6.5, 3 hr): 93.5%
Production rate of Alvocidib (pH7.0, 0 hr): 0.0%
Residual rate (pH7.0, 0 hr): 93.9%
Production rate of Alvocidib (pH7.0, 0.5 hr): 0.0%
Residual rate (pH7.0, 0.5 hr): 93.4%
Production rate of Alvocidib (pH7.0, 1 hr): 0.0%
Residual rate (pH7.0, 1 hr): 93.8%
Production rate of Alvocidib (pH7.0, 2 hr): 0.0%
Residual rate (pH7.0, 2 hr): 93.9%
Production rate of Alvocidib (pH7.0, 3 hr): 0.0%
Residual rate (pH7.0, 3 hr): 93.3%
Production rate of Alvocidib (pH7.4, 0 hr): 0.0%
Residual rate (pH7.4, 0 hr): 93.3%
Conversion to Alvocidib at pH 7.4 (pH 7.4, 37° C., up to 3 hours): slowly converted to Alvocidib
Production rate of Alvocidib (pH7.4, 0.5 hr): 0.0%
Residual rate (pH7.4, 0.5 hr): 93.9%
Production rate of Alvocidib (pH7.4, 1 hr): 0.0%
Residual rate (pH7.4, 1 hr): 93.9%
Production rate of Alvocidib (pH7.4, 2 hr): 0.0%
Residual rate (pH7.4, 2 hr): 93.4%
Production rate of Alvocidib (pH7.4, 3 hr): 0.0%
Residual rate (pH7.4, 3 hr): 93.4%
